The target of assay [1] is T1, Prostaglandin G/H synthase 1 (Rattus norvegicus, UniProt Q63921).
T1 sequence (Q63921 whole entry): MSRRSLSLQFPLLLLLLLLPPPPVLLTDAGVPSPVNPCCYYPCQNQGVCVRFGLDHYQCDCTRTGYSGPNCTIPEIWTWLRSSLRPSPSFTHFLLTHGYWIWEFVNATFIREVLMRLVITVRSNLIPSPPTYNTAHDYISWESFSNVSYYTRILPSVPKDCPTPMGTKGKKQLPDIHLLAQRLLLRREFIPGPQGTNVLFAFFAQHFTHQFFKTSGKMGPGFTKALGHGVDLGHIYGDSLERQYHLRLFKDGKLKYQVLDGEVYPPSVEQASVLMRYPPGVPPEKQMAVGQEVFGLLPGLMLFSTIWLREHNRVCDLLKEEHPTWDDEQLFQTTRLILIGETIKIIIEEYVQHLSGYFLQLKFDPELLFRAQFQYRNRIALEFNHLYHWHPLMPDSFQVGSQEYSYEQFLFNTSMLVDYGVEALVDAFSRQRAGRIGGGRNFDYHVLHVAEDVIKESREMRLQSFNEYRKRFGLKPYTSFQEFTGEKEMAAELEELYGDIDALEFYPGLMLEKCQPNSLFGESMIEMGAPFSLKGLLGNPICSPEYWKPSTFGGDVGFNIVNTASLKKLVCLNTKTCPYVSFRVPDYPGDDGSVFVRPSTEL
Type of assay: functional.

Assay [2] has as its target Sodium channel protein type 5 subunit alpha (Homo sapiens, UniProt Q14524). Type of assay: functional, cell-based.
For assay [3], the target named is Gamma-aminobutyric acid receptor subunit alpha-1/alpha-2/beta-2/gamma-2 (Homo sapiens, UniProt P14867+P18507+P47869+P47870). Type of assay: functional, cell-based.
The target in assay [4] is T2, Alpha-1A adrenergic receptor (Homo sapiens, UniProt P35348).
T2 sequence (P35348 whole entry): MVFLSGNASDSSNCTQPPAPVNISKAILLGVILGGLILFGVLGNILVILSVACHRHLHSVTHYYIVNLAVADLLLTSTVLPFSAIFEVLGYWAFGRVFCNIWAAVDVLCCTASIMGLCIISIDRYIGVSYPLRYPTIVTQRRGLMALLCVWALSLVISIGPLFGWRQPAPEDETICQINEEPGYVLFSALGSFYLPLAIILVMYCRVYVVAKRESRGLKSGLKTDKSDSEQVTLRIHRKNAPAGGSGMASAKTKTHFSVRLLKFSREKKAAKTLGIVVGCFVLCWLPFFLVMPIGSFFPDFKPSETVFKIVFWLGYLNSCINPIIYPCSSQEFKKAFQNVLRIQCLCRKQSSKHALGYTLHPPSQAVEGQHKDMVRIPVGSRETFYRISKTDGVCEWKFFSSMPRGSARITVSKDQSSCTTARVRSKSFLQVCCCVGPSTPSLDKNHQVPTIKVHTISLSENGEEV

Assay [5] deals with D(1A) dopamine receptor (Homo sapiens, UniProt P21728).
Assay [6] deals with 5-hydroxytryptamine receptor 6 (Homo sapiens, UniProt P50406).
For assay [7], the target named is Gamma-aminobutyric acid type B receptor subunit 1 (Homo sapiens, UniProt Q9UBS5).
Assay [8] has as its target 5-hydroxytryptamine receptor 7 (Homo sapiens, UniProt P34969).
Assay [9] concerns the target D(1B) dopamine receptor (Homo sapiens, UniProt P21918).
Assay [10] concerns the target 5-hydroxytryptamine receptor 5A (Homo sapiens, UniProt P47898).
Assay [11] concerns the target Cannabinoid receptor 1 (Homo sapiens, UniProt P21554). Type of assay: functional.
Assay [12] deals with T3, Muscarinic acetylcholine receptor M4 (Homo sapiens, UniProt P08173).
T3 sequence (P08173 whole entry): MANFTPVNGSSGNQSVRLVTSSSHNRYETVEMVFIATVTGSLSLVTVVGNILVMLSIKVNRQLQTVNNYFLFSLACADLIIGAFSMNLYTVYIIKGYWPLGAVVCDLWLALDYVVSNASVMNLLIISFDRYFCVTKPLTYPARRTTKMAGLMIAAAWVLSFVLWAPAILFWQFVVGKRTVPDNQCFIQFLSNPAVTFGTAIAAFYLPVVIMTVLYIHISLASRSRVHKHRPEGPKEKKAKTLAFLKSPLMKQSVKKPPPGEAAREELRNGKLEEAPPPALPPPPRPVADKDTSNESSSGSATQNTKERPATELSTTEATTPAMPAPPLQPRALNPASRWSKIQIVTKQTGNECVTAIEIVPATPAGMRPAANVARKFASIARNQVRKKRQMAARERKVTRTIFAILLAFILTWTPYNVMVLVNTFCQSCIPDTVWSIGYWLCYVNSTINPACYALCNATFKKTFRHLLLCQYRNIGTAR

The target of assay [13] is T4, Muscarinic acetylcholine receptor M5 (Homo sapiens, UniProt P08912).
T4 sequence (P08912 whole entry): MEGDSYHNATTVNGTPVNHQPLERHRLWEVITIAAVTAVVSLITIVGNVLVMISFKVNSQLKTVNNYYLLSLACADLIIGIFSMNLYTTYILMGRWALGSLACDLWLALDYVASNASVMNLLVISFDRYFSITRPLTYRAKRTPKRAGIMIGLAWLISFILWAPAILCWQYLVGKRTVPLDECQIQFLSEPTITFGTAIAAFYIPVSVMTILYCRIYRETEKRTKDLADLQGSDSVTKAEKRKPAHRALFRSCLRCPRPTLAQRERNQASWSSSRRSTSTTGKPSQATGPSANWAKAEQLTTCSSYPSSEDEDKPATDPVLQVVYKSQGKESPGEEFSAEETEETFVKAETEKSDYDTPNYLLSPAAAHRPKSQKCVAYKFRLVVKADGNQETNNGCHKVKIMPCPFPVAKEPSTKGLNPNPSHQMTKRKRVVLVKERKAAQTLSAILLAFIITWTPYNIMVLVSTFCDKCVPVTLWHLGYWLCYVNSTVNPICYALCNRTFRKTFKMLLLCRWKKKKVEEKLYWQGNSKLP

Assay [14] deals with Rod cGMP-specific 3',5'-cyclic phosphodiesterase subunit alpha (Homo sapiens, UniProt P16499). Type of assay: functional.
Assay [15] has as its target Beta-1 adrenergic receptor (Homo sapiens, UniProt P08588). Type of assay: functional, cell-based.

Where only a bound is given, the exact number is not on record here.
Note: assay procedure not described here.

Sequence of 5-hydroxytryptamine receptor 7 (P34969 whole entry): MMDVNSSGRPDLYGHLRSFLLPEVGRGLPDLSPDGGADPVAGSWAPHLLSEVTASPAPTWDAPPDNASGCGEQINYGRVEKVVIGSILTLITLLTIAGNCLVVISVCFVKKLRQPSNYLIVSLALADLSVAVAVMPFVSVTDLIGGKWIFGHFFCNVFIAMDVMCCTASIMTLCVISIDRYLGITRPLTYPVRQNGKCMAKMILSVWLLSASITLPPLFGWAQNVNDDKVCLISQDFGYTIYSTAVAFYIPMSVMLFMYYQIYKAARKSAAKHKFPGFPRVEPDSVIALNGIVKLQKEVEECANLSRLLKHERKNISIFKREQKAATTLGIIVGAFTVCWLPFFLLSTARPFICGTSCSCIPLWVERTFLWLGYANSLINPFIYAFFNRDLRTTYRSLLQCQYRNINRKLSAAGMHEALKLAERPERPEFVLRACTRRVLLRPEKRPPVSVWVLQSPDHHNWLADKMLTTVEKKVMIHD
Sequence of Gamma-aminobutyric acid receptor subunit alpha-1/alpha-2/beta-2/gamma-2 (P14867 whole entry): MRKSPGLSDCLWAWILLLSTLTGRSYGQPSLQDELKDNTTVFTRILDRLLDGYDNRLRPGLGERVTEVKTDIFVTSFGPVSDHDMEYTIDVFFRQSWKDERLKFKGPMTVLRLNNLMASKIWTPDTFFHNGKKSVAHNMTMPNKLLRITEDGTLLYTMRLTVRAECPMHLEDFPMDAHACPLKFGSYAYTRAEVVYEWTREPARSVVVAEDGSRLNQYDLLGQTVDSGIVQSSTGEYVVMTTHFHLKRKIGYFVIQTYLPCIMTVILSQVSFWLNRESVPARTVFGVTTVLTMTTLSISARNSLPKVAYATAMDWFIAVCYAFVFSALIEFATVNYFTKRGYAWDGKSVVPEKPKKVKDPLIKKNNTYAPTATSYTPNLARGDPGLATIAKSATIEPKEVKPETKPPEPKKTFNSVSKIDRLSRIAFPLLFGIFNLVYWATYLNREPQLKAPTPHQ
Sequence of Gamma-aminobutyric acid receptor subunit alpha-1/alpha-2/beta-2/gamma-2 (P47870 whole entry): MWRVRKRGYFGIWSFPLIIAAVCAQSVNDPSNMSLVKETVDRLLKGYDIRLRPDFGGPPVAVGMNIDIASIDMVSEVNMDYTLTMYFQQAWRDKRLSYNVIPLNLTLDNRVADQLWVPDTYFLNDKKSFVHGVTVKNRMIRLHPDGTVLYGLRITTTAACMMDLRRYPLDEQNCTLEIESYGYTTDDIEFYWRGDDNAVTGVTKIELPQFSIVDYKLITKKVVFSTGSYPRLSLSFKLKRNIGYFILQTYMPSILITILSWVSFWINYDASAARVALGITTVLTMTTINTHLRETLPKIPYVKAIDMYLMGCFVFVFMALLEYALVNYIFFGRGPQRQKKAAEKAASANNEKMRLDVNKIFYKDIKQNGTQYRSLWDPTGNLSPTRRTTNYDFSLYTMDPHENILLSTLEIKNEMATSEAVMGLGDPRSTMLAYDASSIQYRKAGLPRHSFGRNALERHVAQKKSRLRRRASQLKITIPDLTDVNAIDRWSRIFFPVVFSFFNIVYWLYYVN
Sequence of Gamma-aminobutyric acid receptor subunit alpha-1/alpha-2/beta-2/gamma-2 (P18507 whole entry): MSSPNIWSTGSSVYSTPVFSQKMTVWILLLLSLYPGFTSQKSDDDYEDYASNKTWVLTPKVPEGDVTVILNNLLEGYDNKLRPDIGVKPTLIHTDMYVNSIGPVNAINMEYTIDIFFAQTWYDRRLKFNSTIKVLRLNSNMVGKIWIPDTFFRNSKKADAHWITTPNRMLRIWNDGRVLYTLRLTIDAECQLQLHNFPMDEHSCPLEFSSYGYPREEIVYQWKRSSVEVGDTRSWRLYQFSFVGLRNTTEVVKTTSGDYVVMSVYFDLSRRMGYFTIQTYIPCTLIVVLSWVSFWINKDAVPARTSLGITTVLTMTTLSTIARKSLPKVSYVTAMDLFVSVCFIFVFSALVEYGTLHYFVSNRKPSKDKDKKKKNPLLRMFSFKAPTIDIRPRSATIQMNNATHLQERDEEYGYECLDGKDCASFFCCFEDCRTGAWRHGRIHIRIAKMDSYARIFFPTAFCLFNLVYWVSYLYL
Sequence of Gamma-aminobutyric acid receptor subunit alpha-1/alpha-2/beta-2/gamma-2 (P47869 whole entry): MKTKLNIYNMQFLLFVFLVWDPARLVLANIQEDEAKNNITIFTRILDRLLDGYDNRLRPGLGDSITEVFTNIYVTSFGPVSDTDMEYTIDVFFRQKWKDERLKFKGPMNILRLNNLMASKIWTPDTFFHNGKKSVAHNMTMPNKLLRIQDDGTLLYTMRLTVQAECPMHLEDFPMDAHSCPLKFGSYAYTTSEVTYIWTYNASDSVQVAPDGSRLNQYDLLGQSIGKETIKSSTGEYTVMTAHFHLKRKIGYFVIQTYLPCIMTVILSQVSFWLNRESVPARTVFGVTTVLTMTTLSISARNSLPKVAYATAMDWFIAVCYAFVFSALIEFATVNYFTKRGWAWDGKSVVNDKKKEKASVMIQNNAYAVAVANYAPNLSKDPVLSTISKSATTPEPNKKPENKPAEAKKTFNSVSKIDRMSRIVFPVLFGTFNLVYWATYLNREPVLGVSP
Sequence of Gamma-aminobutyric acid type B receptor subunit 1 (Q9UBS5 whole entry): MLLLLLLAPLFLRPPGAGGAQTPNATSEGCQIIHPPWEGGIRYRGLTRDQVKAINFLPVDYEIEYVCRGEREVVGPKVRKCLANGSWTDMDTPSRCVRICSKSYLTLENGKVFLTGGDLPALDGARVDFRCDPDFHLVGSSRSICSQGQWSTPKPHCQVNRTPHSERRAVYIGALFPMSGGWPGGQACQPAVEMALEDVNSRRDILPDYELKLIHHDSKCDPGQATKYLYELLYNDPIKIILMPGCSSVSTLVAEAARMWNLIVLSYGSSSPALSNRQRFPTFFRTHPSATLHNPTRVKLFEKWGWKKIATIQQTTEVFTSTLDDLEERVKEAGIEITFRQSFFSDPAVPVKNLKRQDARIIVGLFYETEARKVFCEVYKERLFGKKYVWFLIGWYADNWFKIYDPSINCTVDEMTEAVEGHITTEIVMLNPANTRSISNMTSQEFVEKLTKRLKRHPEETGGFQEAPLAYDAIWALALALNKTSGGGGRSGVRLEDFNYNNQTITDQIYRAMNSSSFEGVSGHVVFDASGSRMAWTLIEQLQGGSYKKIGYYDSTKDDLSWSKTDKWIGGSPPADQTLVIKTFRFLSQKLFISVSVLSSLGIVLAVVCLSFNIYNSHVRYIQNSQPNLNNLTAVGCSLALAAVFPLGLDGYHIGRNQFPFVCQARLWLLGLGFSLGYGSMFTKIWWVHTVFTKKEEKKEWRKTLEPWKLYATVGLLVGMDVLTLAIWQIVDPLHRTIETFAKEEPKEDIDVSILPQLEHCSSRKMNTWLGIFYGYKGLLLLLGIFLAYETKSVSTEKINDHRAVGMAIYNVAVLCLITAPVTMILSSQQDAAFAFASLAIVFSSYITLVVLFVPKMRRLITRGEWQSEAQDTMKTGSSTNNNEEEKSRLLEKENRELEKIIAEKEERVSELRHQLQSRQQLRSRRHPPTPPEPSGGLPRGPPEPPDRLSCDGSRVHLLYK
Sequence of Cannabinoid receptor 1 (P21554 whole entry): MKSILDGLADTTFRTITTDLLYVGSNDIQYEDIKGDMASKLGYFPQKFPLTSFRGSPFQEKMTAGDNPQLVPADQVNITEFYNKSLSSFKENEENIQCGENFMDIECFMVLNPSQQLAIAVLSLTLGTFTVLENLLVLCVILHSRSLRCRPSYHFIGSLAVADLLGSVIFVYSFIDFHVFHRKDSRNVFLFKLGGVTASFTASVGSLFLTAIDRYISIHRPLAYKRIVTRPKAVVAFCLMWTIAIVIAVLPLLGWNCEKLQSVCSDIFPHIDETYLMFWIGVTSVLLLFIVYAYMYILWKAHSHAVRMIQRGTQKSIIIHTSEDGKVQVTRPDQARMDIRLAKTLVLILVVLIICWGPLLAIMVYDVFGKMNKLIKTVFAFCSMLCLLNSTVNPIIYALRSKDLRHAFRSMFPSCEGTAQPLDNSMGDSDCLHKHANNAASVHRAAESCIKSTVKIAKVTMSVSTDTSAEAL
Sequence of 5-hydroxytryptamine receptor 6 (P50406 whole entry): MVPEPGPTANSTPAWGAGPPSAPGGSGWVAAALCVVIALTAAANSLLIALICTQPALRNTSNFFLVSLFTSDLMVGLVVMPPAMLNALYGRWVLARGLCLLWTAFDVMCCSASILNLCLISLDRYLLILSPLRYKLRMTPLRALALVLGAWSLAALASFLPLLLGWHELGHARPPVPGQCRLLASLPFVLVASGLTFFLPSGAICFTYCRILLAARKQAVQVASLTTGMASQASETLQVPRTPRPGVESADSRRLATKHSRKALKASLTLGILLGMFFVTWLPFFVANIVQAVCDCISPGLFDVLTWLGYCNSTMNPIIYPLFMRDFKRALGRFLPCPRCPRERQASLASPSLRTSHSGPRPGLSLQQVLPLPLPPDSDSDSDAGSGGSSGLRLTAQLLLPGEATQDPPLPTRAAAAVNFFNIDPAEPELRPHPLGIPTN
Sequence of D(1A) dopamine receptor (P21728 whole entry): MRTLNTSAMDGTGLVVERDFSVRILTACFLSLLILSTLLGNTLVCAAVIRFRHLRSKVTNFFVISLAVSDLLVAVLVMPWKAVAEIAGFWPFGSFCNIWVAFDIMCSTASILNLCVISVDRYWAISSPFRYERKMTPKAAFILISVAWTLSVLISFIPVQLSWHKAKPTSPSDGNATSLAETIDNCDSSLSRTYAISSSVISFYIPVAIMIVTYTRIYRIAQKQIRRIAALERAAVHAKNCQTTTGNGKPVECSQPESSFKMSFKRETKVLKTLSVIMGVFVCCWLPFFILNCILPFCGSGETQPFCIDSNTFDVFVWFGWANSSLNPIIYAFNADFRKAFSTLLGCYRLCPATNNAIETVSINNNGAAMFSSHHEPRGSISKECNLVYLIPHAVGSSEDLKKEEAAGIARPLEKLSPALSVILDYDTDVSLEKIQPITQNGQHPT

Turning to `CC(C)COCC(CN(Cc1ccccc1)c1ccccc1)N1CCCC1` (centres undefined) [BEPRIDIL], the figures for the AC50 in [1] and in [2] were > 30 µM and 2.1 µM, respectively.

`C/N=C(\NC)NCc1ccccc1` [BETHANIDINE]: in assay [3], the AC50 (commonly the midpoint of the concentration-response curve, whichever way the signal moves) is > 30 µM.

For the compound `C=C1CC[C@H](O)C/C1=C/C=C1\CCC[C@]2(C)[C@@H]([C@H](C)/C=C/[C@H](C)C(C)C)CC[C@@H]12` [ERGOCALCIFEROL], the AC50 is 24.7 µM in assay [4] and > 30 µM in [5].

In the case of `C[C@]12CC[C@@H]3c4ccc(O)cc4C[C@@H](CCCCCCCCC[S+]([O-])CCCC(F)(F)C(F)(F)F)[C@H]3[C@@H]1CC[C@@H]2O` (some centres undefined) [FULVESTRANT], the concentration at half-maximal activity (AC50) was > 30 µM in [3] and > 10 µM in assay [2].

In the case of `Cc1cnc(C(=O)NCCc2ccc(S(=O)(=O)NC(=O)NC3CCCCC3)cc2)cn1` [GLIPIZIDE], the concentration at half-maximal activity (AC50) in assay [6], in assay [7] and in assay [8] was > 10 µM throughout.

With `CCC1(c2ccccc2)CCC(=O)NC1=O` (centres undefined) [GLUTETHIMIDE], the AC50 in [2] was > 50 µM.

With `CN1CCN(C2=Nc3ccccc3Oc3ccc(Cl)cc32)CC1` [LOXAPINE], the half-maximal activity concentration (AC50) in [6] was 0.0574 µM; in assay [7] it was > 10 µM; in assay [9], 0.248 µM; in assay [8], 0.732 µM; in assay [10] it was 1.04 µM; in assay [11] it was > 10 µM. Further, the half-maximal activity concentration (AC50) in assay [12] was 3.73 µM; in assay [13], 0.671 µM; in assay [14], > 10 µM.

On to `CC(C(=O)O)c1ccc(CC2CCCC2=O)cc1` (centres undefined) [LOXOPROFEN], for which the AC50 in [15] was > 30 µM.

`OC1(c2ccc(Cl)cc2)c2ccccc2C2=NCCN21` (centres undefined) [MAZINDOL]: the half-maximal activity concentration (AC50) in assay [6] was > 10 µM; in assay [7] it was > 10 µM; in assay [2], > 50 µM; in assay [9] it was > 10 µM; in assay [8] it was > 10 µM; in [10] it was > 10 µM. The AC50 in [11], in [12], in assay [13] and in [14] was > 10 µM in each case.

Compound `CCOC(=O)C1=C(C)NC(C)=C(C(=O)OC)C1c1cccc([N+](=O)[O-])c1` (centres undefined) [NITRENDIPINE] had a concentration at half-maximal activity (AC50) in [2] of 5 µM.

As for `O=[N+]([O-])c1ccc(O)c2ncccc12` [NITROXOLINE], the AC50 in assay [3], in [4] and in [5] was > 30 µM in each case.

For the compound `CC(N)C(O)c1ccccc1` (centres undefined) [PHENYLPROPANOLAMINE], the AC50 in assay [6], in [7], in [8], in assay [11] and in assay [13] was > 10 µM in each case.

The compound `Clc1ccc(C(Cn2ccnc2)OCc2ccsc2Cl)c(Cl)c1` (centres undefined) [TIOCONAZOLE] registered an AC50 in [1] of 14 µM.

For the compound `CCC(C)C(CC)C(N)=O` (centres undefined) [VALNOCTAMIDE], the half-maximal activity concentration (AC50) in assay [3] is > 30 µM.

Take `Cc1cc(C(C)(C)C)cc(C)c1CC1=NCCN1` [XYLOMETAZOLINE]: the concentration at half-maximal activity (AC50) in assay [3] and in [15] was > 30 µM throughout.

(Values after ChEMBL document CHEMBL5291721, “A preclinical secondary pharmacology resource illuminates target-adverse drug reaction associations of marketed drugs” (Nat Commun, 2023).)
